# From patent publication US20070004759A1, “Fungicidal mixtures for controlling rice pathogens” (priority 2004, published 2007)
# System: Cochliobolus miyabeanus
# Experiment: Activity against brown spot of rice caused by Cochliobolus miyabeanus, protective application
# Type: in vivo
# Settings: individual active compound, rice seedlings cultivar Tai-Nong 67, protective spray, evaluated six days after inoculation
# Description: The active compounds, separately or jointly, were prepared as a stock solution with 0.25% by weight of active compound in acetone or DMSO. 1% by weight of the emulsifier Uniperol® EL (wetting agent having emulsifying and dispersing action based on ethoxylated alkylphenols) was added to this solution, and the solution was diluted with water to the desired concentration.
# Leaves of potted rice seedlings of the cultivar “Tai-Nong 67” were sprayed to runoff point with an aqueous suspension of the concentration of active compound stated below. The next day, the plants were inoculated with an aqueous spore suspension of Cochliobolus miyabeanus. The test plants were then placed in climatized chambers at 22-24° C. and 95-99% relative atmospheric humidity for six days. The extent of the development of the infection on the leaves was then determined visually.
# Evaluation is carried out by determining the percentage of infected plants. These percentages were converted into efficacies.
# The efficacy (E) is calculated as follows using Abbot's formula: E=(1−α/β)·100
# α corresponds to the fungicidal infection of the treated plants in % and
# β corresponds to the fungicidal infection of the untreated (control) plants in %
# An efficacy of 0 means that the infection level of the treated plants corresponds to that of the untreated control plants; an efficacy of 100 means that the treated plants are not infected.
# The expected efficacies of mixtures of active compounds are determined using Colby's formula (Colby, R. S., Weeds, 15, 20-22, 1967) and compared with the observed efficacies.
# Colby's formula: E=x+y−x·y/100 • E expected efficacy, expressed in % of the untreated control, when using the mixture of the active compounds A and B at the concentrations a and b • x efficacy, expressed in % of the untreated control, when using the active compound A at the concentration a • y efficacy, expressed in % of the untreated control, when using the active compound B at the concentration b
SMILES,Efficacy in % of the untreated control (4 ppm in the spray liquor) [%],Efficacy in % of the untreated control (16 ppm in the spray liquor) [%]
CC1CCN(c2c(-c3c(F)cccc3Cl)c(Cl)nc3ncnn23)CC1 [A],29,53
C[C@H](Nc1c(-c2c(F)cc(F)cc2Cl)c(Cl)nc2ncnn12)C(F)(F)F [B],5,41
"CC1CCN(c2c(-c3c(F)cc(F)cc3F)c(Cl)nc3ncnn23)CC1 [compound I, 5-chloro-7-(4-methylpiperidin-1-yl)-6-(2,4,6-trifluorophenyl)-[1,2,4]triazolo[1,5-a]pyrimidine]",5,17
"CC1(C(=O)Nc2ccc(O)c(Cl)c2Cl)CCCCC1 [compound II, N-(2,3-dichloro-4-hydroxyphenyl)-1-methylcyclohexanecarboxamide]",0,0
